In the experiment the target is T1, GST-RIPK1 (recombinant GST-RIPK1 kinase domain (residues 1-327)) (Homo sapiens, UniProt Q13546).
T1 construct: recombinant GST-RIPK1 kinase domain (residues 1-327) enzyme; made in house; host or cells: baculovirus-transfected Sf21 insect cells
T1 sequence (Q13546 1-327): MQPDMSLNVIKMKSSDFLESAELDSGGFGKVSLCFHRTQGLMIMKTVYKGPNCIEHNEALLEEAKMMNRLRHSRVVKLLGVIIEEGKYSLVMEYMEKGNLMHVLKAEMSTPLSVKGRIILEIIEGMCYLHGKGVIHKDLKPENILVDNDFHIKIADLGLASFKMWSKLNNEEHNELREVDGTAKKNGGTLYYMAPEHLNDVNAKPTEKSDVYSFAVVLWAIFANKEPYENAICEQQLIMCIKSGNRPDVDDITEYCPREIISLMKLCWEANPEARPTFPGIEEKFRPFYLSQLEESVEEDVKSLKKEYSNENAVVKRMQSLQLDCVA
In words: RIPK1-ADP-Glo enzymatic assay. In kind it is biochemical. Conditions: 25 nM GST-RIPK1, 300 μM ATP, 3 μM dephosphorylated-MBP; 30 minutes pre-incubation, 150 minutes reaction; ten-point titration. The protocol:
The enzymatic activity of RIPK1 is measured using an assay derived from ADP-Glo kit (Promega™), which provides a luminescent-based ADP detection system. Specifically, the ADP generated by RIPK1 kinase is proportionally detected as luminescent signals in a homogenous fashion. In this context, the assessment of the inhibitory effect of small molecules (EC50) is measured by the effectiveness of the compounds to inhibit the ATP to ADP conversion by RIPK1. In this assay, the potency (EC50) of each compound was determined from a ten-point (1:3 serial dilution; top compound concentration of 100000 nM) titration curve using the following outlined procedure. To each well of a white ProxiPlus 384 well-plate, […] of compound (1% DMSO in final assay volume of 3 μL) was dispensed, followed by the addition of 2 μL of 1× assay buffer (25 mM Hepes 7.3, 20 mM MgCl2, 50 mM NaCl, 1 mM DTT, 0.005% Tween20, and 0.02% BSA) containing 37.5 nM of GST-RIPK1 (recombinant GST-RIPK1 kinase domain (residues 1-327) enzyme produced from baculovirus-transfected Sf21 cells: MW=62 kDa). Plates were placed in an ambient temperature humidified chamber for a 30 minutes pre-incubation with compound. Subsequently, each reaction was initiated by the addition of 1 μL 1×assay buffer containing 900 μM ATP and […]. The final reaction in each well of 3 μL consists of 25 nM of GST-RIPK1, 300 μM ATP, and 3 μM dephosphorylated-MBP. Kinase reactions were allowed to proceed for 150 minutes prior to adding ADP-Glo reagents per Promega's outlined kit protocol. Dose-response curves were generated by plotting percent effect (% product conversion; Y-axis) vs. Log10 compound concentrations (X-axis). EC50 values were calculated using a non-linear regression, four-parameters sigmoidal dose-response model.
Background: ADP-Glo turns the ADP formed in a reaction into a luminescent signal.

Experimental findings from US20240228506A1, “RIPK1 INHIBITORS AND METHODS OF USE” (Merck Sharp & Dohme LLC, priority 2021, published 2024) are described below.

Broadly, the IC50 is the concentration that gives 50% inhibition.

Molecules are shown by their SMILES.

In the case of `O=C(N1C[C@@H]2C[C@H]1c1cncc(C#Cc3ccc(F)cc3)c1O2)C12CCC(F)(CC1)C2` [Compound 2-122, (4-fluorobicyclo[2.2.1]heptan-1-yl)((2S,5S)-9-((4-fluorophenyl)ethynyl)-2,3-dihydro-2,5-methanopyrido[3,4-f][1,4]oxazepin-4(5H)-yl)methanone], the IC50 came out at 24 nM.

Take `O=C(N1C[C@@H]2C[C@H]1c1cncc(F)c1O2)C12CCC(CC1(F)F)C2` (single isomer, unassigned) [Compound 2-19, (2,2-(S or R)-difluorobicyclo[2.2.1]heptan-1-yl)((2S,5S)-9-fluoro-2,3-dihydro-2,5-methanopyrido[3,4-f][1,4]oxazepin-4(5H)-yl)methanone]: the IC50 is 453 nM.

For `CC(C)(CC#N)C(=O)N1C[C@@H]2C[C@H]1c1cncc(C#N)c1O2` [Compound 1-20, (2S,5S)-4-(3-cyano-2,2-dimethylpropanoyl)-2,3,4,5-tetrahydro-2,5-methanopyrido[3,4-f][1,4]oxazepine-9-carbonitrile], the IC50 is 89 nM.

For `Cc1ncccc1C#Cc1cncc2c1O[C@H]1C[C@@H]2N(C(=O)C(C)(C)C(F)F)C1` [Compound 2-82, 3,3-difluoro-2,2-dimethyl-1-((2S,5S)-9-((2-methylpyridin-3-yl)ethynyl)-2,3-dihydro-2,5-methanopyrido[3,4-f][1,4]oxazepin-4(5H)-yl)propan-1-one], the IC50 worked out at 66 nM.

Consider `CC1(C(=O)N2C[C@@H]3C[C@H]2c2cncc(C#N)c2O3)CC(F)(F)C1` [Compound 1-77, (2S,5S)-4-(3,3-difluoro-1-methylcyclobutane-1-carbonyl)-2,3,4,5-tetrahydro-2,5-methanopyrido[3,4-f][1,4]oxazepine-9-carbonitrile], for which the IC50 came out at 139 nM.

On to `Cc1ncc2c(c1C#N)O[C@H]1C[C@@H]2N(C(=O)C23CCC(C(F)(F)F)(CC2)C3)C1` [Compound 1-82, (2S,5S)-8-methyl-4-(4-(trifluoromethyl)bicyclo[2.2.1]heptane-1-carbonyl)-2,3,4,5-tetrahydro-2,5-methanopyrido[3,4-f](1,4]oxazepine-9-carbonitrile], for which the IC50 stood at 13 nM.

With `O=C(N1C[C@@H]2C[C@H]1c1cncc(C#Cc3ccc(F)cc3F)c1O2)C12CCC(C(F)(F)F)(CC1)C2` [Compound 2-59, ((2S,5S)-9-((2,4-difluorophenyl)ethynyl)-2,3-dihydro-2,5-methanopyrido[3,4-f][1,4]oxazepin-4(5H)-yl)(4-(trifluoromethyl)bicyclo[2.2.1]heptan-1-yl)methanone], the IC50 turned out to be 22 nM.

Take `COC(C)(C(=O)N1C[C@@H]2C[C@H]1c1cncc(C#N)c1O2)C1CC1` (mixture of isomers) [Compound 1-62, (2S,5S)-4-(2-(S and R)-cyclopropyl-2-methoxypropanoyl)-2,3,4,5-tetrahydro-2,5-methanopyrido[3,4-f][1,4]oxazepine-9-carbonitrile]: the IC50 came out at 444 nM.

Turning to `CCC(C)(C#N)C(=O)N1C[C@@H]2C[C@H]1c1cncc(C#N)c1S2` (single isomer, unassigned) [Compound 4-10, (2S,5S)-4-(2-(R or S)-cyano-2-methylbutanoyl)-2,3,4,5-tetrahydro-2,5-methanopyrido[3,4-f][1,4]thiazepine-9-carbonitrile], the IC50 came to 43 nM.

As for `CN1CC2CC1(C(=O)N1C[C@@H]3C[C@H]1c1cncc(C#N)c1O3)C2` [Compound 1-109, (2S,5S)-4-(2-methyl-2-azabicyclo[2.1.1]hexane-1-carbonyl)-2,3,4,5-tetrahydro-2,5-methanopyrido[3,4-f][1,4]oxazepine-9-carbonitrile], the IC50 worked out at 241 nM.

As to `CC1(C(=O)N2C[C@@H]3C[C@H]2c2cncc(C#N)c2O3)CCCC(F)(F)C1` (single isomer, unassigned) [Compound 1-40, (2S,5S)-4-[3,3-difluoro-1(R or S)-methylcyclohexane-1-carbonyl]-2,3,4,5-tetrahydro-2,5-methanopyrido[3,4-f][1,4]oxazepine-9-carbonitrile], the IC50 is 62 nM.
